Results as given in US11578055B2, “Triazacyclododecansulfonamide (“TCD”)-based protein secretion inhibitors” (KEZAR LIFE SCIENCES, priority 2018, dated 2023).
Where a name gives a salt, the structure may show the parent alone.

Experiments:
[1] = tested on: PD1 signal sequence plus 10 amino acids fused to Gaussia Luciferase (PD1-ss+10aa/Gaussia Luciferase); assay: Dox Induced PD1-ss-Gluc Assay; assay type: cell-based; settings: 24 hr, 293FRT/TO; read-out: 24 hr Dox Inducible PD1ssGluc 293FRT/TO: Mean IC50
Procedure, shortened: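 Compound dilutions in DMSO/media containing doxycycline were applied to a stable, inducible 293 T-REx line carrying the luciferase fusion, then incubated at 37 °C, 5% CO2. Where stereochemistry is not drawn, values relate to isomer mixtures.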

[2] = In Vitro Microsome Stability Assay (monkey); assay type: in vitro ADME; settings: monkey, 30 min, NADPH
Procedure, shortened: (§1)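 The value reported is the percentage of parent left after 30 min, calculated from analyte/IS peak-area ratios relative to time zero by LC-MS/MS. Incubations ran at 37° C in 0.1 M potassium phosphate with NADPH and microsomes (stock 20 mg/mL), with compound added from a 0.25 mM DMSO stock. Acetonitrile containing IS stopped the reactions.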

[3] = In Vitro Microsome Stability Assay (mouse); assay type: in vitro ADME; settings: mouse, 30 min, NADPH
Procedure, shortened: as §1

[4] = tested on: multiple myeloma cell line NCl-H929; assay: H929 Cell Viability Assay; assay type: cell-based, human; settings: Homo sapiens, NCI-H929, 48 h, H929, read-out: 48 hr H929 Viability Celltiter-Glo: Mean EC50
Procedure, shortened: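 Viability was determined by CellTiter-Glo luminescence after a 48 h, 37 °C exposure of NCI-H929 cells to serial compound dilutions in medium containing 10% FBS. Where stereochemistry is not shown, values refer to a mix of stereoisomers.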

[5] = tested on: multiple myeloma cell line U266B1; assay: U266 Cell Viability Assay; assay type: cell-based, human; settings: Homo sapiens, U-266; 48 hr, U266; read-out: 48 hr U266 Viability Celltiter-Glo: Mean EC50
Procedure, shortened: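 Viability was measured by CellTiter-Glo luminescence after 48 h compound exposure at 37° C, 5% CO2. The cells were U266B1 multiple myeloma cells grown in RPMI 1640 plus 10% FBS. Where stereochemistry is not shown, values apply to the stereoisomer mixture.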

[6] = In Vitro Microsome Stability Assay (rat); assay type: in vitro ADME; settings: rat, 30 min, NADPH
Procedure, shortened: as §1

[7] = In Vitro Microsome Stability Assay (human); assay type: in vitro ADME; settings: human, 30 min, NADPH
Procedure, shortened: as §1

[8] = tested on: full length TNFα (amino acids 1-233) fused to Gaussia Luciferase; assay: Dox Induced TNFα-FL-Gluc Assay; assay type: cell-based; settings: 24 hr, 293FRT/TO; read-out: 24 hr Dox Inducible TNFaFLGluc 293FRT/TO: Mean IC50
Procedure, shortened: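 Compounds diluted in DMSO/medium with doxycycline were incubated at 37° C, 5% CO2 with 293 T-REx cells stably carrying a Tet-regulated TNFα(1-233)-Gaussia luciferase construct. Data for structures drawn without stereochemistry refer to stereoisomer mixtures.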

Row | IC50 [1] [nM] | Liver Microsome Stability-% Left after 30 min w/ NADPH (%) Monkey [2] [%] | Liver Microsome Stability-% Left after 30 min w/ NADPH (%) Mouse [3] [%] | EC50 [4] [µM] | EC50 [5] [µM] | Liver Microsome Stability-% Left after 30 min w/ NADPH (%) Rat [6] [%] | Liver Microsome Stability-% Left after 30 min w/ NADPH (%) Human [7] [%] | IC50 [8] [µM] | Compound
1 | 761 | 0.11 | 0.26 | > 25 | 10.4 | 6 | 0.05 | > 25 | C=C1CN(S(=O)(=O)c2ccc(N(C)C)cc2)CCCN(CC2CCCCC2)CCCN(S(=O)(=O)N2CCC(C#N)CC2)C1 [A39, 1-{[9-(cyclohexylmethyl)-5-[4-(dimethylamino)benzenesulfonyl]-3-methylidene-1,5,9-triazacyclododecan-1-yl]sulfonyl}piperidine-4-carbonitrile]
2 | 308 | 0.04 | 0.19 | > 25 | > 25 | 0.12 | 0.04 | > 15.1 | CN(C)c1ccc(S(=O)(=O)N2CCCN(CC3CCCCC3)CCCN(S(=O)(=O)N3CCCCC3)CC3(CC3)C2)c(F)c1 [A40]
3 | 17500 | 0.1 | 0.2 | > 25 | > 25 | 0.14 | 0.08 | > 25 | O=S(=O)(C1CCCCC1)N1CCCN(CC2CCCCC2)CCCN(S(=O)(=O)N2CCCCC2)CC2(CC2)C1 [A41]
4 | 696 | 0.81 | 0.79 | > 25 | > 25 | 7.69 | 2.65 | > 25 | CN(C)c1ccc(S(=O)(=O)N2CCCN(CC3CCCCC3)CCCN(S(=O)(=O)N3CCC(c4ccccc4)CC3)CCC2)cc1 [A42, 4-{[5-(cyclohexylmethyl)-9-[(4-phenylpiperidin-1-yl)sulfonyl]-1,5,9-triazacyclododecan-1-yl]sulfonyl}-N,N-dimethylaniline]
5 | 132 | 38 | 43.8 | > 25 | > 25 | 54 | 47.6 | 12.7 | CC1CN(S(=O)(=O)c2ccc(N(C)C)cc2)CCCN(CC2CCCCC2)CCCN(S(=O)(=O)N2CCC(c3ccccc3)CC2)C1 (centres unmarked) [A44, 4-{[9-(cyclohexylmethyl)-3-methyl-5-[(4-phenylpiperidin-1-yl)sulfonyl]-1,5,9-triazacyclododecan-1-yl]sulfonyl}-N,N-dimethylaniline hydrochloride]
6 | 50.1 | 1.44 | 3.63 | 3.34 | > 25 | 4.46 | 6.12 | 1.76 | C=C1CN(S(=O)(=O)c2ccc(N(C)C)cc2)CCCN(CC2CCCCC2)CCCN(S(=O)(=O)N2CCN(c3ccccc3)[C@H](C)C2)C1 [A46, 4-{[9-(cyclohexylmethyl)-5-{[(3 R)-3-methyl-4-phenylpiperazin-1-yl]sulfonyl}-3-methylidene-1,5,9-triazacyclododecan-1-yl]sulfonyl}-N,N-dimethylaniline]
7 | 259 | 1.68 | 5.68 | > 25 | > 25 | 10.7 | 12.6 | > 25 | C=C1CN(S(=O)(=O)c2ccc(N(C)C)cc2)CCCN(CC2CCCCC2)CCCN(S(=O)(=O)N2CCN(c3ccccc3)[C@@H](C)C2)C1 [A47, 4-{[9-(cyclohexylmethyl)-5-{[(3S)-3-methyl-4-phenylpiperazin-1-yl]sulfonyl}-3-methylidene-1,5,9-triazacyclododecan-1-yl]sulfonyl}-N,N-dimethylaniline]
8 | 991 | 0.1 | 0.07 | > 25 | > 25 | 0.4 | 0.19 | > 25 | C=C1CN(S(=O)(=O)c2ccc(N(C)C)cc2)CCCN(CC2CCCCC2)CCCN(S(=O)(=O)N2CCN(c3ccccc3)C(=O)C2)C1 [A48, 4-{[9-(cyclohexylmethyl)-5-[4-(dimethylamino)benzenesulfonyl]-3-methylidene-1,5,9-triazacyclododecan-1-yl]sulfonyl}-1-phenylpiperazin-2-one]
9 | 407 | 9.36 | 11.8 | > 25 | > 25 | 16.4 | 3.5 | > 25 | C=C1CN(S(=O)(=O)c2ccc(N(C)C)cc2)CCCN(CC2CCCCC2)CCCN(S(=O)(=O)N2CCC[C@H](c3ccccc3)C2)C1 [A49, 4-{[9-(cyclohexylmethyl)-3-methylidene-5-{[(3 R)-3-phenylpiperidin-1-yl]sulfonyl}-1,5,9-triazacyclododecan-1-yl]sulfonyl}-N,N-dimethylaniline]
10 | 61.4 | 23.6 | 28 | 6.15 | > 25 | 34.7 | 26.7 | 3.07 | C=C1CN(S(=O)(=O)c2ccc(N(C)C)cc2)CCCN(CC2CCCCC2)CCCN(S(=O)(=O)N2CCc3cccc(Cl)c3C2)C1 [A51, 4-({5-[(8-chloro-1,2,3,4-tetrahydroisoquinolin-2-yl)sulfonyl]-9-(cyclohexylmethyl)-3-methylidene-1,5,9-triazacyclododecan-1-yl}sulfonyl)-N,N-dimethylaniline]
11 | 45.6 | 38.3 | 29.3 | 2.11 | > 25 | 40.1 | 31 | 1.04 | C=C1CN(S(=O)(=O)c2ccc(N(C)C)cc2)CCCN(CC2CCCCC2)CCCN(S(=O)(=O)N2CCc3ccc(Cl)cc3C2)C1 [A52, 4-({5-[(7-chloro-1,2,3,4-tetrahydroisoquinolin-2-yl)sulfonyl]-9-(cyclohexylmethyl)-3-methylidene-1,5,9-triazacyclododecan-1-yl}sulfonyl)-N,N-dimethylaniline]
12 | 35.3 | 39 | 39.2 | 1.72 | > 10.3 | 50.5 | 38 | 1.01 | C=C1CN(S(=O)(=O)c2ccc(N(C)C)cc2)CCCN(CC2CCCCC2)CCCN(S(=O)(=O)N2CCc3cc(Cl)ccc3C2)C1 [A53, 4-({5-[(6-chloro-1,2,3,4-tetrahydroisoquinolin-2-yl)sulfonyl]-9-(cyclohexylmethyl)-3-methylidene-1,5,9-triazacyclododecan-1-yl}sulfonyl)-N,N-dimethylaniline]
13 | 26.5 | 30.5 | 34.6 | 1.91 | > 25 | 42.4 | 33.8 | 0.952 | C=C1CN(S(=O)(=O)c2ccc(N(C)C)cc2)CCCN(CC2CCCCC2)CCCN(S(=O)(=O)N2CCc3c(Cl)cccc3C2)C1 [A54, 4-({5-[(5-chloro-1,2,3,4-tetrahydroisoquinolin-2-yl)sulfonyl]-9-(cyclohexylmethyl)-3-methylidene-1,5,9-triazacyclododecan-1-yl}sulfonyl)-N,N-dimethylaniline]
